In assay [1] the test system is primary Leydig cells from PDE8A−/−/B−/− knock-out mice. Kind of assay: Testosterone production from primary Leydig cells, PDE8A-/-/B-/- knock-out mice. It is filed as cell-based, mouse. The conditions noted are these: 3 h, rolipram 20 µM, BC8-15 10 µM and 40 µM. The procedure: (§1) Leydig cells were isolated from testes of wild type and PDE8A^−/−/B^−/− knock-out adult mice as previously described. Digested tissue from decapsulated mouse testis was enriched for interstitial cells by filtration as previously described. Collected cells were resuspended in DMEM/F-12 medium supplemented with 1 mg/mL BSA and 150 µL aliquots were dispensed into 48-well plates. After permitting cells to recover at 37°C for 3 h, 30 µL of media with test compounds or vehicle was added to replicate wells. Media were collected after incubation for 3 h and stored at −20°C. Testosterone released into the media was measured by a testosterone ELISA kit (Neogen, Lexington, KY).

The next assay has as its target T1, rat PDE2A (Rattus norvegicus, UniProt Q01062).
T1 construct: purchased BPS Bioscience Inc
T1 sequence (Q01062 1-928): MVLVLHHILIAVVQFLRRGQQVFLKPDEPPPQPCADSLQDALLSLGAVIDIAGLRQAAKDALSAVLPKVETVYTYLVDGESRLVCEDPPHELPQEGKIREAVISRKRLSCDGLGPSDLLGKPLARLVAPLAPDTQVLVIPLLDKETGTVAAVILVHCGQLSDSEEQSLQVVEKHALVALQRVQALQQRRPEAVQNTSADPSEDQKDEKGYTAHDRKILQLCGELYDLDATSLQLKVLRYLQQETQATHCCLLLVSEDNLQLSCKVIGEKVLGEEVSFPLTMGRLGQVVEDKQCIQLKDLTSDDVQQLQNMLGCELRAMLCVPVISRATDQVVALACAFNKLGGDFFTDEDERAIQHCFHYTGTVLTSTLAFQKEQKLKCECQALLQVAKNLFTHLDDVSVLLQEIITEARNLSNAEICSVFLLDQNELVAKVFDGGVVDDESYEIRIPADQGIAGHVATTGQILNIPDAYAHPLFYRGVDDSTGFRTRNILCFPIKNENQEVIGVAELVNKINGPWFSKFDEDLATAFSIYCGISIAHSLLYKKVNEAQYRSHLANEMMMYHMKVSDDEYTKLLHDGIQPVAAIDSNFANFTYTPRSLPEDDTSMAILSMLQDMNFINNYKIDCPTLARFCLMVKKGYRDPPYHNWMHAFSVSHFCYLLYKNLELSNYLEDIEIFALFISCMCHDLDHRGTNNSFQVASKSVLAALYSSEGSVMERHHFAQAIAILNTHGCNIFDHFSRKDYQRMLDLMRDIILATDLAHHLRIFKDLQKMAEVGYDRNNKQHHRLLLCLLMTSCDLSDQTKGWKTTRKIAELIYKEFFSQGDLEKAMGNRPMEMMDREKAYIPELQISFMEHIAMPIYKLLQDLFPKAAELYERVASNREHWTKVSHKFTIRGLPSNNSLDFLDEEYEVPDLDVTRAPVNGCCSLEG
Kind of assay: In vitro PDE assay (Ba(OH)2 precipitation), PDE2A. It is filed as biochemical. Conditions: 1 µM cGMP substrate; mean ± SD of three independent experiments. The procedure: (§2) In vitro PDE assays were performed as previously described, using the Ba(OH)2 precipitation assay, with recombinant human PDE1C, PDE3B, PDE5A1, PDE8A, PDE9A2, PDE10A1, PDE11A4 (BPS Bioscience Inc.), rat PDE2A (BPS Bioscience Inc.), human PDE7A (BIOMOL International), and human PDE4A10 enzymes (gift from Dr. Hengming Ke). Substrate concentrations were 120 nM cGMP (PDE1C), 1 µM cGMP (PDE2A), 30 nM cGMP (PDE3B), 50 nM cAMP (PDE4A), 520 nM cGMP (PDE5A), 10 nM cAMP (PDE7A), 10 nM cAMP (PDE8A), 70 nM cGMP (PDE9A), 40 nM cAMP (PDE10A), and 120 nM cGMP (PDE11A). Reactions were performed in 50 mM Tris·HCl (pH 8.5), 10 mM MgCl2 (for all enzymes except PDE8) or 4 mM MnCl2 (for PDE8A), and 5 mM dithiothreitol, and proceeded for 30 min for PDE8A, 6 min for PDE10A and 15 min for other PDEs, so that reactions were linear with time. Reactions were stopped with 200 µL 0.2 M ZnSO4, after which 5′-AMP was precipitated with 200 µL 0.25 N Ba(OH)2 by centrifugation for 15 min at 14000 rpm. The remaining radioactivity in the supernatant was measured in 4 mL of scintillation fluid. The amount of hydrolysis was generally limited to 30 percent conversion and IC50 values were calculated as the means of three independent experiments. Substrate concentrations were ≤0.1*Km for each enzyme, thus IC50 values approximate the Ki values.

For a further assay, the target named is T2, human PDE7A (Homo sapiens, UniProt Q13946).
T2 construct: purchased BIOMOL International
T2 sequence (Q13946 whole entry): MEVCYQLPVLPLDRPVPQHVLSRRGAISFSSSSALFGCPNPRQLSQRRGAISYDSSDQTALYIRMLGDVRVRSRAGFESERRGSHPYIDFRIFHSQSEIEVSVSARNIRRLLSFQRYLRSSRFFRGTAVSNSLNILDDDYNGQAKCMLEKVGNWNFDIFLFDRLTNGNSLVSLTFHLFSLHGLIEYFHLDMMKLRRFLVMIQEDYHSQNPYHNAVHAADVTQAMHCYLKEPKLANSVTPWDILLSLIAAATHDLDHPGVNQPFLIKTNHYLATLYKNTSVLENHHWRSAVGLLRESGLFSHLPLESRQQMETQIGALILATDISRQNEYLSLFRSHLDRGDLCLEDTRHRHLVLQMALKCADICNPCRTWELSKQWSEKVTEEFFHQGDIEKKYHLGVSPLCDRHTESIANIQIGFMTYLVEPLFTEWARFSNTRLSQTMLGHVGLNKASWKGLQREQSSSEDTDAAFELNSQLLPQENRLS
Briefly: In vitro PDE assay (Ba(OH)2 precipitation), PDE7A. It is filed as biochemical. The conditions noted are these: for IC50: 10 nM cAMP substrate, mean ± SD of three independent experiments.

The next assay has as its system MA-10 Leydig tumor cells. Kind of assay: Progesterone release from MA-10 Leydig tumor cells. Type of assay: cell-based, mouse. Conditions: 20 µM compound; 2 h. As for the experimental part: MA-10 Leydig tumor cells were maintained in RPMI medium supplemented with 10% horse serum and seeded in 24 well plates to achieve 60–80% confluency after 2–3 days. Cells were washed with serum free medium twice and incubated in a 5% CO2 incubator at 37°C for 2 h. Following incubation, cells were treated with BC8-15, BC8-15A, or BC8-15C by replacing the media with 300 µL RPMI medium containing test compounds or vehicle. Media were collected after incubation for 2 h at 37°C. Progesterone levels in the media were measured using a progesterone ELISA kit (Neogen, Lexington, KY). Protein levels were determined by lysing cells in lysis buffer (50 mM Tris HCl (pH 7.5), 150 mM NaCl, 1% Triton X-100, 2 mM PMSF (supplemented with a Complete Protease Inhibitor Tablet (Roche, Nutley, NJ)) and measuring the protein concentration using a BCA protein assay kit (Pierce, Rockford, IL).

The target of assay [2] is T3, recombinant human PDE10A1 (Homo sapiens, UniProt Q9Y233).
T3 construct: purchased BPS Bioscience Inc
T3 sequence (Q9Y233 1-779 isoform Q9Y233-1): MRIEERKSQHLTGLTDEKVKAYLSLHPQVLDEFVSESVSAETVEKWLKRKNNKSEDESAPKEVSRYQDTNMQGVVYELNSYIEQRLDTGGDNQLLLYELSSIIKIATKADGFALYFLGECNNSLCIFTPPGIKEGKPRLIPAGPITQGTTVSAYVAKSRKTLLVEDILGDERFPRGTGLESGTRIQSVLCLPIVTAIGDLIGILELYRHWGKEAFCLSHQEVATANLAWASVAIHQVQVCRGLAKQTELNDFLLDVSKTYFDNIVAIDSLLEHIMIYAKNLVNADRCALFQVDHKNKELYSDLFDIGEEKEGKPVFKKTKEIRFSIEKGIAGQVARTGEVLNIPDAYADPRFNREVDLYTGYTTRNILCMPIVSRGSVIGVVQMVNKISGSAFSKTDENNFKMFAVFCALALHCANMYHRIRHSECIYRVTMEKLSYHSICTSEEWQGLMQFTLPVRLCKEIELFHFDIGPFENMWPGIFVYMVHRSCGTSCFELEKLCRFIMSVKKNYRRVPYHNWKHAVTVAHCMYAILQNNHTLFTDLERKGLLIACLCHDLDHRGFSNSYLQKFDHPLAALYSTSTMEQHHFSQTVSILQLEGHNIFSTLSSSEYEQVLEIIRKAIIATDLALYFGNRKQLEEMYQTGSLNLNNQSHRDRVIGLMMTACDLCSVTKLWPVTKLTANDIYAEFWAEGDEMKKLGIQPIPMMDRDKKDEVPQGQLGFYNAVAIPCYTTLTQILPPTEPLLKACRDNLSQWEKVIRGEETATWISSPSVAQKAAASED
Kind of assay: In vitro PDE assay (Ba(OH)2 precipitation), PDE10A. Type of assay: biochemical. Conditions: 40 nM cAMP substrate; mean ± SD of three independent experiments. As for the experimental part: as §2

The next assay deals with T4, recombinant human PDE1C (Homo sapiens, UniProt Q14123).
T4 construct: purchased BPS Bioscience Inc
T4 sequence (Q14123 whole entry): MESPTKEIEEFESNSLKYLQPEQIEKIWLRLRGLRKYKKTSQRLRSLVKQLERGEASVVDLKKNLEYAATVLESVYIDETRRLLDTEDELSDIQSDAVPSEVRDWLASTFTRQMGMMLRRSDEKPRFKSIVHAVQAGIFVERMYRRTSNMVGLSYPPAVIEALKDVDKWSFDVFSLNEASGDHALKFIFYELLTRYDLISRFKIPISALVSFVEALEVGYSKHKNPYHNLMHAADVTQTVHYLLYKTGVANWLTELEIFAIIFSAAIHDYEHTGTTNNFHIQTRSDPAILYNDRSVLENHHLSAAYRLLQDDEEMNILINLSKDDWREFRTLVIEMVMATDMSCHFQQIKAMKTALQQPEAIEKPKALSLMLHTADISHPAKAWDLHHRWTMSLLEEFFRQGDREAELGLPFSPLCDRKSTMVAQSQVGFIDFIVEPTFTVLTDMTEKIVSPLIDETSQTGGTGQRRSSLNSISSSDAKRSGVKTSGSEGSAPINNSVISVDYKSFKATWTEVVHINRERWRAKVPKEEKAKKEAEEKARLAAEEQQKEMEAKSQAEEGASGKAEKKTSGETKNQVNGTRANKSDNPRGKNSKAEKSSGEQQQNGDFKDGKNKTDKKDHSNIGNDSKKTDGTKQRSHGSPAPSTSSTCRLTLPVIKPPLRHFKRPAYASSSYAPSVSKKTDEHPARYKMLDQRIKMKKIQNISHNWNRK
Kind of assay: In vitro PDE assay (Ba(OH)2 precipitation), PDE1C. Type of assay: biochemical. The conditions noted are these: 120 nM cGMP substrate; mean ± SD of three independent experiments. As for the experimental part: as §2

In a further assay the target is T5, recombinant human PDE9A2 (Homo sapiens, UniProt O76083).
T5 construct: purchased BPS Bioscience Inc
T5 sequence (O76083 1-533 isoform O76083-2): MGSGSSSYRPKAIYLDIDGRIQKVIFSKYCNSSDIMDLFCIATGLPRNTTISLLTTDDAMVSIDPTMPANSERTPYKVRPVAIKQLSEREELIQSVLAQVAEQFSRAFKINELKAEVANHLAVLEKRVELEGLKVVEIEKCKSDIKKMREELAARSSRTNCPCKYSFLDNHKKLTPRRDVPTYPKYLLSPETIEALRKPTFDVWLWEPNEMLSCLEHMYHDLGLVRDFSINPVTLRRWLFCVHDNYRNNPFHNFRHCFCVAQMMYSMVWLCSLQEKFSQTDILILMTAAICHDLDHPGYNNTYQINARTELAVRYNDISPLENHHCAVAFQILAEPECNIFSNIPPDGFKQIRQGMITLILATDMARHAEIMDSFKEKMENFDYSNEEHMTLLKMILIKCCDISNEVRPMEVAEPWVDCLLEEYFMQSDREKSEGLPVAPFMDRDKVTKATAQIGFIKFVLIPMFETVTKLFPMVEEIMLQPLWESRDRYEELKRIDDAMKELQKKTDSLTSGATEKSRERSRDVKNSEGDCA
Kind of assay: In vitro PDE assay (Ba(OH)2 precipitation), PDE9A. It is filed as biochemical. The conditions noted are these: 70 nM cGMP substrate; three independent experiments. The procedure:
as §2

Assay [3] deals with primary Leydig cells from wild type mice. Briefly: Testosterone production from primary Leydig cells, wild type mice. Type of assay: cell-based, mouse. The conditions noted are these: 3 h, rolipram 20 µM, BC8-15 10 µM and 40 µM. As for the experimental part:
as §1

Assay [4] addresses T6, recombinant human PDE11A4 (Homo sapiens, UniProt Q9HCR9).
T6 construct: purchased BPS Bioscience Inc
Kind of assay: In vitro PDE assay (Ba(OH)2 precipitation), PDE11A. Type of assay: biochemical. The conditions noted are these: 120 nM cGMP substrate; mean ± SD of three independent experiments. As for the experimental part:
as §2

In the next assay the target is T7, recombinant human PDE8A (Homo sapiens, UniProt O60658).
T7 construct: purchased BPS Bioscience Inc
Briefly: In vitro PDE assay (Ba(OH)2 precipitation), PDE8A. Type of assay: biochemical. Conditions: for IC50: 10 nM cAMP substrate. The procedure: as §2

Another assay addresses T8, human PDE4A10 (Homo sapiens, UniProt P27815).
T8 construct: gift from Dr. Hengming Ke
Briefly: In vitro PDE assay (Ba(OH)2 precipitation), PDE4A. Conditions: 50 nM cAMP substrate. Type of assay: biochemical.

The target in another assay is T9, recombinant human PDE3B (Homo sapiens, UniProt Q13370).
T9 construct: purchased BPS Bioscience Inc
T9 sequence (Q13370 whole entry): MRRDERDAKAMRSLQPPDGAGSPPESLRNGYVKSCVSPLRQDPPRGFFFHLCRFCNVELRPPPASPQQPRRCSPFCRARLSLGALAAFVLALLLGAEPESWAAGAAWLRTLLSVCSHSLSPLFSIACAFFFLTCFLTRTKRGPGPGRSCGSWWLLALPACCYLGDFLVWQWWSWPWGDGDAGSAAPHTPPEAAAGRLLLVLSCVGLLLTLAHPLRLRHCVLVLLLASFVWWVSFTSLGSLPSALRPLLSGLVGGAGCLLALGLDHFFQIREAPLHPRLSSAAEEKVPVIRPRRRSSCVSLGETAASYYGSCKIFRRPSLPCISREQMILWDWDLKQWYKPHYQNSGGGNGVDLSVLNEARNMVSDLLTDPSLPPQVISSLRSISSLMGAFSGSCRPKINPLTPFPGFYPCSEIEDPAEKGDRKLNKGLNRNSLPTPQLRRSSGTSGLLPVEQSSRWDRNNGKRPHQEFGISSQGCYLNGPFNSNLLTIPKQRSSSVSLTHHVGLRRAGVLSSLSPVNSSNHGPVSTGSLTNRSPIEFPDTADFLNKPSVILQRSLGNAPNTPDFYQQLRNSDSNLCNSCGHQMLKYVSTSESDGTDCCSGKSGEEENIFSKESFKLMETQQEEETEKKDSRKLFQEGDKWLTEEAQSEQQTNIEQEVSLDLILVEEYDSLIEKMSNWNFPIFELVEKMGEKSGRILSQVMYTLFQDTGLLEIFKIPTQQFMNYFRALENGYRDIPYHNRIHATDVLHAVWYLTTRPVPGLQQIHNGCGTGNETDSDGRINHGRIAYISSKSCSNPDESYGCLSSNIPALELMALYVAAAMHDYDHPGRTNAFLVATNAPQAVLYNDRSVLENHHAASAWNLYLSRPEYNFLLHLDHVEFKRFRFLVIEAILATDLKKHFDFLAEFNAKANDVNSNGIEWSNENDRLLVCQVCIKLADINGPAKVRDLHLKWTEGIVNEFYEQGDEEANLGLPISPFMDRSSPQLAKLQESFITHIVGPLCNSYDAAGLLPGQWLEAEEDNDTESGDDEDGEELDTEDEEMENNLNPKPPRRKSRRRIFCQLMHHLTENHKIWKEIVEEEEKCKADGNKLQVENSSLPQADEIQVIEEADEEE
Kind of assay: In vitro PDE assay (Ba(OH)2 precipitation), PDE3B. Type of assay: biochemical. The conditions noted are these: 30 nM cGMP substrate; three independent experiments. As for the experimental part: as §2

For another assay, the target named is T10, recombinant human PDE5A1 (Homo sapiens, UniProt O76074).
T10 construct: purchased BPS Bioscience Inc
Kind of assay: In vitro PDE assay (Ba(OH)2 precipitation), PDE5A. Type of assay: biochemical. The conditions noted are these: 520 nM cGMP substrate; mean ± SD of three independent experiments. As for the experimental part: as §2

The subject of the next assay is T11, murine PDE8A1.
T11 construct: expressed in transfected cells; host or cells: Schizosaccharomyces pombe strain CHP1204 (PDE8A1 integrated at the cgs2 locus)
Briefly: Yeast-based 5FOA growth HTS with PDE8A-expressing S. pombe strain CHP1204. Type of assay: cell-based. The conditions noted are these: Known Bioactives Collection screen. As for the experimental part:
Cyclic nucleotide-dependent growth in 5FOA medium was monitored in 50 µL cultures in 384-well microtiter plates (untreated, flat clear bottom). Cells were inoculated at an initial cell density of 0.5–2×10^5 cells/mL. Previously described optimized pre-growth conditions for each strain were used to repress the fbp1-ura4^+ reporter prior to inoculation into 5FOA medium, as cells that are already expressing the Ura4 enzyme would be 5FOA-sensitive even upon exposure to a PDE inhibitor [18]. Following a 48-h incubation at 30°C, plates were vortexed and optical densities (600 nm) were measured. The experiments with the PDE8A-expressing strain (CHP1204) were performed with 0.5 mM cAMP in the pre-growth medium and 40 µM cAMP in the 5FOA medium. […]
The suitability and quality of the assay conditions for high throughput screening was evaluated by a Z factor test as previously described, [23], using DMSO (0.2%) as a negative control, and either 5 mM cAMP, 10 µM BC69, or 20 µM BC69 as positive controls. […] After 48 h growth at 30°C, the optical density (OD600) of each well was measured using a plate reader. Composite Z scores were calculated for each compound by scaling the vector [Zscore_A, Zscore_B] by the cosine correlation with the diagonal (i.e. identical Z-scores in both replicates).

The next assay deals with PDE8 enzymes. On the set-up: method as in PMID 9671792, PMID 9784418. The conditions noted are these: ref [6], [11]; cited from earlier work.
[5] abbreviates: mean ± SD of three independent experiments.

T6 sequence (Q9HCR9 whole entry): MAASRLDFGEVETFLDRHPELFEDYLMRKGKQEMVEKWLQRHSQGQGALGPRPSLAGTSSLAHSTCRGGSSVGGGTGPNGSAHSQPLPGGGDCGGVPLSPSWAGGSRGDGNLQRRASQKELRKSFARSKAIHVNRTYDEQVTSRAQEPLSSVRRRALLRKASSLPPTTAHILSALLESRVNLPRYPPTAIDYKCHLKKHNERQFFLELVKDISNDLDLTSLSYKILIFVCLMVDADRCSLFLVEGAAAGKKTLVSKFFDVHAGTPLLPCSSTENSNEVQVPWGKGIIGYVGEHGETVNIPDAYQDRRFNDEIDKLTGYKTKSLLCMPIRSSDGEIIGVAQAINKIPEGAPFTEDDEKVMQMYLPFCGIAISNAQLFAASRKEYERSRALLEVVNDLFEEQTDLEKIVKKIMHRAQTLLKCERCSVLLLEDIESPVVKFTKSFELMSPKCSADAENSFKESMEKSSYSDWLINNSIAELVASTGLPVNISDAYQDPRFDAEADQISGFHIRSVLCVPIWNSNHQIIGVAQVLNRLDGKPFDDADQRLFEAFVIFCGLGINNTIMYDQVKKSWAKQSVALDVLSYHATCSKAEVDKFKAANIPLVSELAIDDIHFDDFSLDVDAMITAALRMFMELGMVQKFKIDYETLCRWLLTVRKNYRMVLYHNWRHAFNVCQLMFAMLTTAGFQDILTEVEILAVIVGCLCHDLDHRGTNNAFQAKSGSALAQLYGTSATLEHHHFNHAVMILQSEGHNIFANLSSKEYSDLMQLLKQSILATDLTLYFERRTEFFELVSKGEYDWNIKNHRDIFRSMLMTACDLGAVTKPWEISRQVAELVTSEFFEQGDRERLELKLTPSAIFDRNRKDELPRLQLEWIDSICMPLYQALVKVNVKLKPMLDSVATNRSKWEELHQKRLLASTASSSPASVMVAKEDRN

As for `CCc1nnc2c3ccccc3nc(Nc3cccc(C(=O)O)c3)n12` [BC8-15], the “increase in testosterone production” value in assay [1] was “two-fold increase”. The IC50 against rat PDE2A was 15.7 ± 2.7 µM; against human PDE7A, 6.46 µM; in assay [2], 1.6 ± 0.2 µM; at recombinant human PDE1C, 8.4 ± 3 µM; on recombinant human PDE9A2, greater than 20 µM; in assay [4], 1.2 ± 0.7 µM. The IC50 on recombinant human PDE8A was 0.28 µM; at human PDE4A10, 0.22 µM; at recombinant human PDE3B, greater than 20 µM; at recombinant human PDE5A1, 16.7 ± 2.3 µM. On human PDE7A (ratio of IC50 values), the “fold less activity against PDE7A (vs PDE8A/PDE4A)” value was found to be 23 fold. Further, the “increase in progesterone release compared to untreated cells” value (“increase in progesterone release” for short) in the assay on MA-10 Leydig tumor cells is on record as greater than 10 fold. Further, in [3], the testosterone release entry is given as “dose-dependent elevation”.
For the molecule `COc1ccc(C2CNC(=O)C2)cc1OC1CCCC1` (stereo not shown) [rolipram, reference compound], the “increase in testosterone production” value in assay [1] is “two-fold increase”. Besides, the “increase in progesterone release” value with MA-10 Leydig tumor cells was “little or no effect”. Besides, in assay [3], the testosterone release result is on record as “no response”.
On to `C[C@]12CC[C@H](O)C[C@@H]1CC[C@@H]1[C@@H]2CC[C@]2(C)C(=O)CC[C@@H]12` [epiandrosterone, reference compound], for which the “composite Z score, 5FOA-resistant growth of PDE8A1-expressing strain” value in the assay with murine PDE8A1 (40 µM cAMP in 5FOA medium, 48 h) stood at 12.9. The inhibition at 32 µM at recombinant human PDE8A (32 µM compound, data not shown) stood at 17%.
As for `CC(C)Cn1c(=O)n(C)c(=O)c2[nH]cnc21` [3-isobutyl-1-methylxanthine (IBMX), 3-isobutyl-1-methylxanthine], in the assay on PDE8 enzymes, the “sensitivity of PDE8 enzymes to inhibitor” value is recorded as “insensitive”.
For `Cc1nnc2c3ccccc3nc(Nc3cccc(C(=O)O)c3)n12` [BC8-15A], the IC50 was 5.2 ± 2 µM against rat PDE2A; 8.88 ± 3.9 µM at human PDE7A; 2.3 ± 0.7 µM in assay [2]; greater than 20 µM on recombinant human PDE1C; greater than 20 µM at recombinant human PDE9A2; 1 µM in assay [4]. Besides, the IC50 on recombinant human PDE8A (setting [5]) is 1.59 ± 0.3 µM; at human PDE4A10 (setting [5]) it was 1.59 ± 0.1 µM; on recombinant human PDE3B it was greater than 20 µM; on recombinant human PDE5A1, greater than 20 µM. Besides, the “increase in progesterone release” value with MA-10 Leydig tumor cells is reported as “five-fold”.
`CCc1nnc2c3ccccc3nc(Nc3cccc(C)c3)n12` [BC8-15C]: the IC50 on rat PDE2A is greater than 20 µM; on human PDE7A it was 14.2 ± 6.4 µM; in assay [2], 1.5 ± 1.2 µM; on recombinant human PDE1C it was greater than 20 µM; at recombinant human PDE9A2 it was greater than 20 µM; in [4] it was 0.08 ± 0.05 µM. Besides, the figures for the IC50 on recombinant human PDE8A (setting [5]), at recombinant human PDE3B and at recombinant human PDE5A1 were 59.3 ± 14.2 µM, greater than 20 µM and greater than 20 µM, respectively. In the assay with MA-10 Leydig tumor cells, the “increase in progesterone release” value is recorded as “little or no effect”.
With `OCCN(CCO)c1nc(N2CCCCC2)c2nc(N(CCO)CCO)nc(N3CCCCC3)c2n1` [dipyridamole], the “activity in PDE8A yeast growth screen” value in the assay on murine PDE8A1 is listed as “no activity”. Besides, the “sensitivity of PDE8 enzymes to inhibitor” value with PDE8 enzymes is reported as “only weakly inhibited”.

These data come from paper PMC3743849, “A Yeast-Based Chemical Screen Identifies a PDE Inhibitor That Elevates Steroidogenesis in Mouse Leydig Cells via PDE8 and PDE4 Inhibition” (PLoS ONE, 2013).
